This note sets out measurements from paper PMC11404848, “Stenotrophomonas maltophilia uses a c-di-GMP module to sense the mammalian body temperature during infection” (PLOS Pathogens, 2024).

Structures are written as SMILES.

In the experiment the target is T1, BtsD^Δ(SP-GGDEF).
T1 construct: N-terminal region; signal peptide (1-42) and GGDEF domain (836-1008) deleted; borders derived from printed deletions; expressed in E. coli BL21(DE3), His6 tag kept or GST tag cut
In words: MicroScale Thermophoresis. The conditions noted are these: PBS pH 6.5; protein labelled with Red NHS dye. The experiment is classed as binding, Stenotrophomonas maltophilia. The source says:
MicroScale Thermophoresis on BtsD^Δ(SP-GGDEF) | BtsD^Δ(SP-GGDEF) directly bound with c-di-GMP and Sensor^BtsK
A general note: MST reads how a fluorescent partner responds to local heating, with and without ligand.

In general, Kd refers to the equilibrium constant for the complex coming apart. A high value points to a looser complex.

For `Nc1nc2c(ncn2[C@@H]2O[C@@H]3COP(=O)(O)O[C@H]4[C@@H](O)[C@H](n5cnc6c(=O)[nH]c(N)nc65)O[C@@H]4COP(=O)(O)O[C@H]3[C@H]2O)c(=O)[nH]1` [c-di-GMP], binding was characterised by a dissociation constant (Kd) of 8.72 ± 4.12 µM.
